Source: publication PMC12055592, “Post-symptomatic NLRP3 inhibition rescues cognitive impairment and mitigates amyloid and tau driven neurodegeneration” (Npj Dementia, 2025)

How the values were obtained:
[1] = biological target: human NLRP3 (Homo sapiens, UniProt Q96P20); assay: SPR analysis of interaction with human NLRP3; format: binding
Experimental: VEN-02XX was profiled in vitro to confirm specific binding to human NLRP3 as well as activity in various cellular assays.
The human NLRP3 protein was immobilized onto a nickel-NTA surface (Xantec NiHC1500M). Assay was run in 25 mM HEPES pH 7.5, 150 mM NaCl, 5 mM MgCl2, 0.5 mM TCEP, 0.5 mM ADP, 0.05% Tween-20 and 1% DMSO at 25 °C. Single-cycle method was used, and compound was injected over surface with a contact time of 120 s on and 600 s off by Biocore 8 K machine (Cytiva). A 5-points solvent correction curve was run pre and post run to correct for refractive index of DMSO. Data was then analyzed using the Biacore evaluation software to report binding kinetic parameters.

[2] = tested on: TNFα in iPSC-derived microglia; assay: iPSC-derived microglia in vitro assay, secreted TNFα (specificity); format: cell-based; details: for IC50: Microglia
Experimental: iPSC-derived microglia (BX-0900, BrainXell, Madison, WI) were thawed and recovered as per the supplier’s instructions. Briefly, viable cells were counted post-thaw using Trypan Blue, 0.4% (Thermo Fisher Scientific) and 25,000 cells were seeded on poly-d-lysine coated 96-well plates in DMEM-F/12 medium (Thermo Fisher Scientific) supplemented with 1X B-27 supplement (Thermo Fisher Scientific), 1X N-2 supplement (Thermo Fisher Scientific), 1X Non-essential amino acids (Thermo Fisher Scientific), 1X Chemically defined lipid mix (Thermo Fisher Scientific), 1 mM GlutaMax (Thermo Fisher Scientific), 0.2 mM Ascorbic Acid (Millipore), 100 ng/mL IL-34 (PeproTech, Cranbury, NJ), 2 ng/mL TGF-β1 (PeproTech) and 20 ng/mL M-CSF (PeproTech). Fresh media was added 3 days after seeding, half of which was replenished with fresh media 6 days following seeding. The assay was performed 7 days after cells were seeded in 96-well plates. Two assay protocol variations were performed: cells were either pre-treated with VEN-02XX to block NLRP3 inflammasome formation and then primed with LPS (Fig. 1, D. Compound added before LPS priming) or were primed with LPS and then treated with VEN-02XX (Fig. 1, D. Compound added after LPS priming). For compound treatment, cells were treated with VEN-02XX for 1 h (top concentration 100 µM; 3-fold titration) to block NLRP3 inflammasome formation. For LPS priming, cells were primed with 100 ng/mL LPS (E.coli O26:B6, Millipore) for 4 h. At the end of either protocol, cells were stimulated with 10 uM Nigericin (Millipore) for 1 h, after which conditioned media was collected for analysis of secreted IL-1β, IL-18 and TNFα in an electrochemiluminescence immunoassay (Mesoscale Discovery).

[3] = tested on: NLRP3 inflammasome, IL-1β release in mouse whole blood; assay: Mouse whole-blood in vitro assay (LPS, ATP, secreted IL-1β); format: cell-based
Experimental: Blood was collected from CD1 female mice in lithium-Heparin tubes (Sarstedt, Numbrecht, Germany). Freshly collected blood was distributed in each well of a 96-well round-bottom cell culture plate (Corning Life Sciences, Tewksbury, MA). Blood was primed with 1 µg/ml Lipopolysaccharide (LPS) (E. coli O26:B6, Millipore, Burlington, MA) for 4.5 h, incubated at 37 °C with 5% CO2. Following LPS priming, blood was incubated with VEN-02XX pre-diluted in HBSS (Thermo Fisher Scientific, Waltham, MA) with 2% DMSO, for 30 min (top concentration 25 µM; 3-fold titration). Following drug incubation, blood was stimulated with 5 mM ATP (Millipore) for an additional 30 min at 37 °C with 5% CO2 under continuous shaking (450 RPM), after which conditioned media was collected for analysis of secreted IL-1β in an electrochemiluminescence immunoassay (Mesoscale Discovery).

[4] = tested on: NLRC4; assay: NLRC4 in vitro selectivity assay (THP1-Null2 cells, Needle-Tox, IL-1β); format: cell-based; details: n = 2; top concentration 50 µM
[5] = tested on: 5XFAD/Rubicon KO mice; assay: Novel object recognition in 5XFAD/Rubicon KO mice; format: in vivo, mouse
Experimental: (§1) 5XFAD/Rubicon KO mice received vehicle (0.5% w/v methylcellulose/0.1% w/v Tween® 80 in water) or VEN-02XX (0.01, 1, or 20 mg/kg) every day by oral gastric gavage for 9 weeks.
Mice were acclimated to the testing room for 48 h. For habituation, mice were allowed to explore an open-field box (50 cm × 50 cm) for 15 min per day over the course of 48 h. Mice were then exposed to two identical objects for 10 min on the day of testing. One hour later, a novel object was introduced, and mice were allowed to explore for 5 min during the test phase. The time spent exploring each object was quantified using AnyMaze video tracking software using the manufacturer define NOR protocol. Novel object preference (%) and the discrimination index (time with novel)/(novel + familiar) * 100) were calculated for each mouse using AnyMaze software.

[6] = tested on: 5XFAD/Rubicon KO mice; assay: Brain cytokine/chemokine quantification (ECLIA) in 5XFAD/Rubicon KO mice; format: in vivo, mouse; details: 9 weeks PO QD
Experimental: as §1
Brain tissue was homogenized in PBS, pH 7.4 with 1X Halt™ protease inhibitor cocktail (Thermo Fisher Scientific, Waltham, MA) using a Bead Ruptor homogenizer (Omni International, Kennesaw, GA). Homogenates were clarified by centrifugation at 10,000 × g for 10 min. The crude homogenate was used for quantification of VEN-02XX levels, as described below. Total protein concentrations were quantified from clarified supernatants in a Pierce BCA protein assay (Thermo Fisher Scientific). Cytokine and chemokine levels were quantified using an electrochemiluminescence immunoassay (ECLIA) for IL-1β (total), TNFα, IL-6 and IP-10 (U-PLEX Custom Biomarker Group 1 (mouse) assay, Meso Scale Discovery, Rockville, MD) following the manufacturer’s instructions. Neurofilament light chain plasma levels were quantified using an enzyme-linked immunosorbent assay (ELISA) from Uman Diagnostics (CAT#: 20-8002) following the manufacturer’s instructions.

human NLRP3, sequence (Q96P20 whole entry): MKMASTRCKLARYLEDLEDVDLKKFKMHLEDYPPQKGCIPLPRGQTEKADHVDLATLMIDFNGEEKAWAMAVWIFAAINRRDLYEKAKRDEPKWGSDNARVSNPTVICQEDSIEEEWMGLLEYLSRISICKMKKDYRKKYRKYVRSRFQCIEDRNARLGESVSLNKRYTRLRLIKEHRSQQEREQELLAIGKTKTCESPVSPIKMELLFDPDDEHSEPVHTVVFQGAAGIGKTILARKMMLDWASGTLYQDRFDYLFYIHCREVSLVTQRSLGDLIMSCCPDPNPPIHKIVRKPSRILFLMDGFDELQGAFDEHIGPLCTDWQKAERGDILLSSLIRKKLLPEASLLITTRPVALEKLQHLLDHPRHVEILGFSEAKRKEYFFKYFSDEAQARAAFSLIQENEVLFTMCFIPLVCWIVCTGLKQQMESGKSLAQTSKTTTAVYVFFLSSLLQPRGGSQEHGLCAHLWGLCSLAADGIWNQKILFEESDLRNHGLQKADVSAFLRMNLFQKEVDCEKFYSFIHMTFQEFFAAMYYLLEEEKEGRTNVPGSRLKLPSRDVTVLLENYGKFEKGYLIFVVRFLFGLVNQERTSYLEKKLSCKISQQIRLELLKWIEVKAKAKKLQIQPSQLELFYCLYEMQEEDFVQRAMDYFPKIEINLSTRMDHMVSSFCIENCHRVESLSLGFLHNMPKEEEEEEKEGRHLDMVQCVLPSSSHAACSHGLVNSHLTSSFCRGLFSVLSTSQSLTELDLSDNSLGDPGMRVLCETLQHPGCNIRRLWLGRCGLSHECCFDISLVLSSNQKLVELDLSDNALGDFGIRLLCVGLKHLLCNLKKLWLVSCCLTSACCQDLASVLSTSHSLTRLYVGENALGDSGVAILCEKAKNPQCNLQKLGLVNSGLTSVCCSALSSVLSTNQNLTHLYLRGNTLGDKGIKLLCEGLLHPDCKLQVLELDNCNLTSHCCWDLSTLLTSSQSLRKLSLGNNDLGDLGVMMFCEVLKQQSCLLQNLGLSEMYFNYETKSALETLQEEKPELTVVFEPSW

CC(C)(O)CNc1nnc(-c2ccc(Cl)cc2C(F)(F)F)c2ccncc12 [VEN-02XX]
Kd ([1]; human NLRP3): 93.3 nM
residence time ([1]; human NLRP3, read-out: residence time (1/kd) (converted)): 12.9 min
kon ([1]; pH 7.5, 1:1 binding, read-out: ka): 13800 M⁻¹ s⁻¹
IC50 ([2]; compound added after LPS priming): > 10 µM
IC50 ([2]; compound added before LPS priming): > 30 µM
TNFα inhibition in cellular assay ([2]; specificity, in words): lack of TNFα inhibition
IC50 ([3]; Mus musculus, IL-1β, geometric mean, n = 3): 440 nM
potency of NLRP3 inhibition in whole blood ([3]; in words): sub-micromolar potency
block of IL-1β release downstream of NLRC4 [4]: inability to block IL-1β release
novel object recognition ([5]; 9 weeks, 0.01, 1, 20 mg/kg PO QD vs vehicle): striking dose-dependent improvement
novel object recognition, learning and memory ([5]; 9 weeks, 20 mg/kg PO QD): restoration of learning and memory to near wild type control levels for most animals
hippocampal IL-1β (total), IL-6, IP-10 and TNFα levels ([6]; 20 mg/kg, levels comparable to WT, lack of statistical significance): notable reduction in all measured inflammatory markers
hippocampal IL-1β [6]: almost complete ablation of IL-1β within the hippocampus
